Experimental data: PubChem BioAssay AID330 (DTP/NCI, 2004)
Several values for one entry are separate records, joined by “and”; a condition that tells them apart may be missing. Equal entries are not always repeated. Inconclusive results and toxic doses are left out.

Test system: P388 leukemia ip, CD2F1 mice, survival T/C
Assay: NCI In Vivo Anticancer Drug Screen. Data for tumor model P388 Leukemia (intraperitoneal) in CD2F1 (CDF1) mice
Conditions: endpoint: median survival time, higher = longer survival
Outline: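 Mice carrying the transplanted tumor received test compound or vehicle. Survival was recorded in each group, and the value is the treated-group measurement divided by that of the vehicle-treated control group.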

[1] = dose: 50.0 mg/kg/injection, schedule: Q01DX009 (ip), vehicle: saline with Tween-80
[2] = dose: 100.0 mg/kg/injection, schedule: Q01DX009 (ip), vehicle: saline with Tween-80
[3] = dose: 200.0 mg/kg/injection, schedule: Q01DX009 (ip), vehicle: saline with Tween-80
[4] = dose: 50.0 mg/kg/injection, schedule: Q01DX005 (ip), vehicle: saline with Tween-80
[5] = dose: 100.0 mg/kg/injection, schedule: Q01DX005 (ip), vehicle: saline with Tween-80
[6] = dose: 200.0 mg/kg/injection, schedule: Q01DX005 (ip), vehicle: saline with Tween-80
[7] = dose: 25.0 mg/kg/injection, schedule: Q01DX009 (ip), vehicle: saline with Tween-80
[8] = dose: 60.0 mg/kg/injection, schedule: Q01DX005 (ip), vehicle: saline with Tween-80
[9] = dose: 120.0 mg/kg/injection, schedule: Q01DX005 (ip), vehicle: saline with Tween-80
[10] = dose: 240.0 mg/kg/injection, schedule: Q01DX005 (ip), vehicle: saline with Tween-80
[11] = dose: 50.0 mg/kg/injection, schedule: Q01DX009 (ip), vehicle: saline
[12] = dose: 100.0 mg/kg/injection, schedule: Q01DX009 (ip), vehicle: saline
[13] = dose: 200.0 mg/kg/injection, schedule: Q01DX009 (ip), vehicle: saline

CC(=O)OC1CC(=O)OC(C)(C)C2CC(=O)C3(C)C(CCC4(C)C(c5ccoc5)OC(=O)C5OC543)C12C (stereo not given)
T/C [1]: 99 % of control
T/C [2]: 97 % of control
T/C [3]: 97 % of control

NC(Cc1ccc(O)cc1)C(=O)N/N=C/c1ccc2c(c1)OCO2 (stereo not given)
T/C [4]: 92 % of control
T/C [5]: 99 % of control
T/C [6]: 103 % of control

CC(C)=CCC(OC(=O)CC(C)C)C1=CC(=O)c2c(O)ccc(O)c2C1=O (stereo not given)
T/C (dose: 6.25 mg/kg/injection, schedule: Q01DX005 (ip), vehicle: saline with Tween-80): 94 % of control
T/C (dose: 12.5 mg/kg/injection, schedule: Q01DX005 (ip), vehicle: saline with Tween-80): 103 % of control
T/C (dose: 25.0 mg/kg/injection, schedule: Q01DX005 (ip), vehicle: saline with Tween-80): 99 % of control

O=C(CCCBr)c1ccccc1
T/C [7]: 107 % of control
T/C [1]: 100 % of control
T/C [2]: 107 % of control
T/C [3]: 100 % of control

CCN(CC)CCCNc1cc(C)c2cc(OC)ccc2n1
T/C (dose: 25.0 mg/kg/injection, schedule: Q01DX001 (ip), vehicle: saline with Tween-80): 99 % of control
T/C (dose: 50.0 mg/kg/injection, schedule: Q01DX001 (ip), vehicle: saline with Tween-80): 97 % of control
T/C (dose: 100.0 mg/kg/injection, schedule: Q01DX001 (ip), vehicle: saline with Tween-80): 90 % of control

CC1=CC(O)C(O)C2(C)C1CC(=O)C13COC4OC(CC1C4=O)C(O)C32 (stereo not given)
T/C (dose: 0.5 mg/kg/injection, schedule: Q01DX009 (ip), vehicle: saline): 102 % of control
T/C (dose: 1.0 mg/kg/injection, schedule: Q01DX009 (ip), vehicle: saline): 103 % of control
T/C (dose: 2.0 mg/kg/injection, schedule: Q01DX009 (ip), vehicle: Klucel (hydroxypropylcellulose) (HPC)): 96 % of control and 97 % of control
T/C (dose: 2.0 mg/kg/injection, schedule: Q01DX009 (ip), vehicle: saline): 107 % of control
T/C (dose: 4.0 mg/kg/injection, schedule: Q01DX009 (ip), vehicle: Klucel (hydroxypropylcellulose) (HPC)): 100 % of control and 111 % of control and 92 % of control
T/C (dose: 4.0 mg/kg/injection, schedule: Q01DX009 (ip), vehicle: saline): 102 % of control
T/C (dose: 8.0 mg/kg/injection, schedule: Q01DX009 (ip), vehicle: Klucel (hydroxypropylcellulose) (HPC)): 98 % of control and 94 % of control
T/C (dose: 16.0 mg/kg/injection, schedule: Q01DX009 (ip), vehicle: Klucel (hydroxypropylcellulose) (HPC)): 92 % of control
T/C (dose: 32.0 mg/kg/injection, schedule: Q01DX009 (ip), vehicle: Klucel (hydroxypropylcellulose) (HPC)): 86 % of control

O=C(O)/C=C\c1c[nH]c2ccccc12
T/C [8]: 94 % of control
T/C [9]: 94 % of control
T/C [10]: 88 % of control

COc1cc2c(c(OC)c1OC)-c1ccc(OC)c(=O)cc1[C@@H](NC(=O)C(F)(F)F)CC2
T/C (dose: 0.09 mg/kg/injection, schedule: Q01DX009 (ip), vehicle: Klucel (hydroxypropylcellulose) (HPC)): 121 % of control
T/C (dose: 0.18 mg/kg/injection, schedule: Q01DX009 (ip), vehicle: Klucel (hydroxypropylcellulose) (HPC)): 123 % of control
T/C (dose: 6.0 micrograms/kg/injection, schedule: Q01DX009 (ip), vehicle: Klucel (hydroxypropylcellulose) (HPC)): 101 % of control
T/C (dose: 12.0 micrograms/kg/injection, schedule: Q01DX009 (ip), vehicle: Klucel (hydroxypropylcellulose) (HPC)): 111 % of control
T/C (dose: 24.0 micrograms/kg/injection, schedule: Q01DX009 (ip), vehicle: Klucel (hydroxypropylcellulose) (HPC)): 112 % of control
T/C (dose: 24.38 micrograms/kg/injection, schedule: Q01DX009 (ip), vehicle: Klucel (hydroxypropylcellulose) (HPC)): 120 % of control
T/C (dose: 48.0 micrograms/kg/injection, schedule: Q01DX009 (ip), vehicle: Klucel (hydroxypropylcellulose) (HPC)): 121 % of control
T/C (dose: 48.75 micrograms/kg/injection, schedule: Q01DX009 (ip), vehicle: Klucel (hydroxypropylcellulose) (HPC)): 120 % of control
T/C (dose: 97.0 micrograms/kg/injection, schedule: Q01DX009 (ip), vehicle: Klucel (hydroxypropylcellulose) (HPC)): 119 % of control
T/C (dose: 97.5 micrograms/kg/injection, schedule: Q01DX009 (ip), vehicle: Klucel (hydroxypropylcellulose) (HPC)): 118 % of control
T/C (dose: 195.0 micrograms/kg/injection, schedule: Q01DX009 (ip), vehicle: Klucel (hydroxypropylcellulose) (HPC)): 122 % of control
T/C (dose: 390.0 micrograms/kg/injection, schedule: Q01DX009 (ip), vehicle: Klucel (hydroxypropylcellulose) (HPC)): 155 % of control

O=S1(=O)CCN(c2ccccc2)CC1
T/C [11]: 96 % of control
T/C [12]: 98 % of control
T/C [13]: 95 % of control

CC(C)N1C(Nc2ccccn2)C(C)(C)C(C)(C)C1Nc1ccccn1 (stereo not given)
T/C (dose: 30.0 mg/kg/injection, schedule: Q01DX005 (ip), vehicle: Klucel (hydroxypropylcellulose) (HPC)): 121 % of control
T/C (dose: 240.0 mg/kg/injection, schedule: Q01DX005 (ip), vehicle: Klucel (hydroxypropylcellulose) (HPC)): 151 % of control and 164 % of control

O=c1cc(O)nc2cn[nH]n12
T/C [11]: 99 % of control
T/C [12]: 90 % of control
T/C [13]: 101 % of control

OCC1OC(O)C2OCCOCCOC3C(O)C(CO)OC(O)C3OCCOCCOC2C1O (stereo not given)
T/C (dose: 60.0 mg/kg/injection, schedule: Q01DX005 (ip), vehicle: saline): 101 % of control
T/C (dose: 120.0 mg/kg/injection, schedule: Q01DX005 (ip), vehicle: saline): 95 % of control
T/C (dose: 240.0 mg/kg/injection, schedule: Q01DX005 (ip), vehicle: saline): 97 % of control

COc1cccc(C(Nc2nncs2)Nc2nncs2)c1
T/C [8]: 97 % of control
T/C [9]: 97 % of control
T/C [10]: 122 % of control

CCS(=O)(=O)CCN1C(=O)CN=C(c2ccccc2F)c2cc(Cl)ccc21
T/C (dose: 12.5 mg/kg/injection, schedule: Q01DX009 (ip), vehicle: saline with Tween-80): 102 % of control
T/C [7]: 104 % of control
T/C [1]: 103 % of control
T/C [2]: 110 % of control

CNC(=O)OCc1c(COC(=O)NC)c(-c2ccc([N+](=O)[O-])cc2)n(C)c1C
T/C (dose: 6.25 mg/kg/injection, schedule: Q01DX009 (ip), vehicle: distilled water + Tween-80): 151 % of control and 153 % of control
T/C (dose: 12.5 mg/kg/injection, schedule: Q01DX009 (ip), vehicle: distilled water + Tween-80): 159 % of control and 169 % of control

O=C(O)/C=N/NS(=O)(=O)/C=C/c1ccccc1
T/C (dose: 25.0 mg/kg/injection, schedule: Q01DX009 (ip), vehicle: distilled water + Tween-80): 166 % of control
T/C (dose: 50.0 mg/kg/injection, schedule: Q01DX009 (ip), vehicle: distilled water + Tween-80): 172 % of control
T/C (dose: 100.0 mg/kg/injection, schedule: Q01DX009 (ip), vehicle: distilled water + Tween-80): 112 % of control

O=C(Nc1ccccc1)C1C(=O)C(=O)N(c2ccccc2)C1=O (stereo not given)
T/C (dose: 50.0 mg/kg/injection, schedule: Q01DX009 (ip), vehicle: Klucel (hydroxypropylcellulose) (HPC)): 107 % of control
T/C (dose: 100.0 mg/kg/injection, schedule: Q01DX009 (ip), vehicle: Klucel (hydroxypropylcellulose) (HPC)): 101 % of control
T/C (dose: 200.0 mg/kg/injection, schedule: Q01DX009 (ip), vehicle: Klucel (hydroxypropylcellulose) (HPC)): 99 % of control

OCCN1CCN(CCCOC2=Nc3ccccc3O/C2=C/c2ccccc2)CC1
T/C (dose: 25.0 mg/kg/injection, schedule: Q04DX003 (ip), vehicle: saline): 100 % of control
T/C (dose: 50.0 mg/kg/injection, schedule: Q04DX003 (ip), vehicle: saline): 100 % of control
T/C (dose: 100.0 mg/kg/injection, schedule: Q04DX003 (ip), vehicle: saline): 98 % of control and 101 % of control

CC[C@@]1(O)C(=O)OCc2c1cc1n(c2=O)Cc2cc3cc(O)ccc3nc2-1
T/C (dose: 0.5 mg/kg/injection, schedule: Q04DX003 (ip), vehicle: other): 160 % of control and 229 % of control
T/C (dose: 0.79 mg/kg/injection, schedule: Q04DX003 (ip), vehicle: other): 165 % of control
T/C (dose: 1.0 mg/kg/injection, schedule: Q04DX003 (ip), vehicle: other): 166 % of control and 192 % of control
T/C (dose: 1.57 mg/kg/injection, schedule: Q04DX003 (ip), vehicle: other): 199 % of control
T/C (dose: 2.0 mg/kg/injection, schedule: Q04DX003 (ip), vehicle: other): 229 % of control
T/C (dose: 3.13 mg/kg/injection, schedule: Q04DX003 (ip), vehicle: other): 295 % of control
T/C (dose: 4.0 mg/kg/injection, schedule: Q04DX003 (ip), vehicle: other): 284 % of control and 314 % of control
T/C (dose: 8.0 mg/kg/injection, schedule: Q04DX003 (ip), vehicle: other): 101 % of control

O=C(Nc1ccccc1-c1ccccc1)c1ccc2c(c1)OCO2
T/C [4]: 97 % of control
T/C [5]: 111 % of control
T/C [6]: 97 % of control
